In brackets after ≈: the same amount, converted by molar mass.
What was measured:
Du-145 (prostate) = assay: SRB antiproliferative assay on Du-145 cells; format: cell-based, human; conditions: Homo sapiens, DU-145; SRB assay
Description: (§1) The applied human cell lines such as MV-4-11 (biphenotypic B myelomonocytic leukaemia), A549 (lung adenocarcinoma), Du-145 (prostate), Hs294T (melanoma), MCF-7 (breast adenocarcinoma) and MCF-10A (normal mammary gland) were obtained from the American Type Culture Collection (ATCC, Rockville, MD, USA). The all cell lines are maintained at the Cell Culture Collection of the Institute of Immunology and Experimental Therapy (Wrocław, Poland). The cells were plated in 96-well plates (Sarstedt, Newton, MA, USA) at a density of 1 × 10^4 cells per well in 100 µL of appropriate culture medium overnight. Biphenotypic B myelomonocytic leukaemia (MV-4-11) cells were cultured in RPMI 1640 medium (Gibco, Scotland, UK) with GlutaMAX (Thermo-Fisher Scientific, Warsaw, Poland) adjusted to contain 1.0 mM sodium pyruvate (Sigma-Aldrich, Chemie GmbH, Steinheim, Germany). Human lung adenocarcinoma (A549) cells were cultured in mixture RPMI 1640 and Opti-MEM medium (Gibco, Scotland, UK) supplemented with GlutaMAX (ThermoFisher Scientific, Warsaw, Poland) and 2mM L-glutamine adjusted to contain 1.0 mM sodium pyruvate. Human prostate (Du-145) and human breast adenocarcinoma (MCF-7) cells were cultured in Eagle medium (IIET, Wrocław, Poland), supplemented with 2 mM L-glutamine adjusted to contain 1.0 mM sodium pyruvate. Human melanoma (Hs294T) cells were cultured in Dulbecco medium (Gibco, Scotland, UK) supplemented with 2 mM L-glutamine. The normal human mammary gland cells (MCF-10A) were cultured in Ham’s F-12 medium containing 2 mM L-glutamine, 5% horse serum, epidermal growth factor EGF (100 μL/100 mL of medium), hydrocortisone (1 mL/ 100 mL of medium), insulin (100 μL/100 mL of medium) and cholera toxin (0.1 mL/100 mL of medium). All applied culture media except MCF-10A were supplemented with 10% of FBS (MV-4-11 cultured with FBS derived from Sigma-Aldrich, Chemie GmbH, Steinheim, Germany, the other cell lines FBS HyClone Thermo-Fisher Scientific, Warsaw, Poland) and streptomycin (100 µg/mL), penicillin (100 U/mL) (both from Polfa, Tarchomin, Poland). The tested cell lines were grown at 37 °C in humid atmosphere saturated with 5% CO2. In our studies were used two assays for determination the cytotoxic activity in vitro of triterpene derivatives. By dissolving 1 mg of each tested compound in 100 µL of DMSO, stock solutions at a 10 mg/mL were obtained. Next, the stock solutions were diluted in appropriate culture medium to reach the required concentrations of compounds ranging from 0.1 to 100 µg/mL. The MTT assay was used for the cytotoxicity screening against biphenotypic B myelomonocytic leukaemia (MV-4-11). The SRB assay was performed for adherent cells such as A549, Du-145, Hs294T, MCF-7 and MCF-10A. Both assays were carried as described by Wietrzyk et al.. The triterpenes in given concentration were examined in triplicates in each experiment, which was repeated 3 times. The results of anticancer activity in vitro were presented as an IC50 in µM. Cisplatin and betulin 1 were used as reference substances.

[1] = test system: A549 (lung adenocarcinoma); assay: SRB antiproliferative assay on A549 cells; format: cell-based, human; conditions: Homo sapiens, A549
Description: as §1

[2] = test system: MCF-10A (normal mammary gland); assay: SRB antiproliferative assay on MCF-10A cells; format: cell-based, human; conditions: Neg = negative in the concentration used
Description: as §1

[3] = test system: MV-4-11 (biphenotypic B myelomonocytic leukaemia) cell line; assay: MTT antiproliferative assay on MV-4-11 cells; format: cell-based, human; conditions: for IC50: Homo sapiens, MV4-11
Description: as §1

[4] = test system: MCF-7 (breast adenocarcinoma); assay: SRB antiproliferative assay on MCF-7 cells; format: cell-based, human; conditions: Homo sapiens, MCF7; SRB assay
Description: as §1

Hs294T (melanoma) = assay: SRB antiproliferative assay on Hs294T cells; format: cell-based, human; conditions: Homo sapiens, Hs 294T; SRB assay
Description: as §1

[5] = design: method as in PMID 17851638; conditions: cited from earlier work
[6] = test system: PC-3, Jurkat, HeLa, HepG2 and HT-29; design: method as in PMID 20494586; conditions: range over PC-3, Jurkat, HepG2, HT-29, read-out: IC50 in the tested cancer cell lines; cited from earlier work
[7] = test system: MCF-7/ADR cells (multidrug-resistant breast cancer); design: method as in PMID 25817774; conditions: read-out: IC50 towards MCF-7/ADR cells; cited from earlier work
lung A549 cell line = test system: lung A549 cell line; design: method as in PMID 20460723; conditions: cited from earlier work
[8] = MTT assay, Neg = negative in the concentration used

In the case of C#CCOC(=O)O[C@H]1CC[C@@]2(C)C(CC[C@]3(C)C2CCC2C4C(C(=C)C)CC[C@]4(CO)CC[C@]23C)C1(C)C (some centres unmarked) [Compound 13, 3-Propargyloxycarbonylbetulin], the IC50 (Du-145 (prostate)) is reported as 95.1 ± 16.8 µM, the IC50 [1] is reported as 14.9 ± 2.5 µM and the “Antiproliferative Activity IC50 MCF-10A” value [2] is reported as “Neg”. For the same molecule, the IC50 [3, 8] was 7.4 ± 1.7 µM, the IC50 [4] was 28.9 ± 4.6 µM and the IC50 (Hs294T (melanoma)) was 82.7 ± 8.4 µM.

With C#CCCOC(=O)O[C@H]1CC[C@@]2(C)C(CC[C@]3(C)C2CCC2C4C(C(=C)C)CC[C@]4(CO)CC[C@]23C)C1(C)C (some centres unmarked) [Compound 14, 3-(3-Butynyloxycarbonyl)betulin] the IC50 (Du-145 (prostate)) was 126 ± 13.2 µM, the IC50 [1] was 33.8 ± 2.8 µM and the “Antiproliferative Activity IC50 MCF-10A” value [2] was “Neg”. For the same molecule, the IC50 [3, 8] was 8.9 ± 0.9 µM, the IC50 [4] was 39.2 ± 6.9 µM and the IC50 (Hs294T (melanoma)) was 164 ± 15.8 µM.

In the case of C=C(C)C1CC[C@]2(C=O)CC[C@]3(C)C(CCC4[C@@]5(C)CC[C@H](OC(=O)CC)C(C)(C)C5CC[C@]43C)C12 (some centres unmarked) [Compound 15, 3-Propanoylbetulinic aldehyde], the IC50 [3, 8] is reported as 71.8 ± 22.9 µM.

C=CC(=O)O[C@H]1CC[C@@]2(C)C(CC[C@]3(C)C2CCC2C4C(C(=C)C)CC[C@]4(C=O)CC[C@]23C)C1(C)C (some centres unmarked) [Compound 16, 3-(2-Propenoyl)betulinic aldehyde] gave an IC50 (Du-145 (prostate)) of 67.1 ± 4.6 µM, an IC50 [1] of 15.1 ± 5 µM and an IC50 ([2]; Homo sapiens, MCF-10A) of 113 ± 11.7 µM. The IC50 [3, 8] was 5.8 ± 1.8 µM, the “fold more potent than 3-acetylbetulinic aldehyde 3 against MV-4-11” value ([3]; MV-4-11 cells) was 6 fold and the IC50 [4] was 60.4 ± 4.4 µM. It also gave an IC50 (Hs294T (melanoma)) of 74.4 ± 7.3 µM.

Molecule C=C(C)C1CC[C@]2(C=O)CC[C@]3(C)C(CCC4[C@@]5(C)CC[C@H](OC(=O)C#CC6CC6)C(C)(C)C5CC[C@]43C)C12 (some centres unmarked) [Compound 17, 3-(3-Cyclopropyl-2-propynoyl)betulinic aldehyde] has an IC50 [3, 8] of 86.7 ± 42.8 µM.

For C=C(C)C1CC[C@]2(C=O)CC[C@]3(C)C(CCC4[C@@]5(C)CC[C@H](OC(=O)C#Cc6ccccc6)C(C)(C)C5CC[C@]43C)C12 (some centres unmarked) [Compound 18, 3-Phenylpropynoylbetulinic aldehyde], the “MV-4-11 IC50” value [3, 8] was “Neg”.

C=C(C)C1CC[C@]2(C=O)CC[C@]3(C)C(CCC4[C@@]5(C)CC[C@H](OC(=O)C#CC)C(C)(C)C5CC[C@]43C)C12 (some centres unmarked) [Compound 19, 3-(2-Butynoyl)betulinic aldehyde] gave an IC50 [3, 8] of 35.9 ± 4.9 µM.

Molecule C=C(C)C1CC[C@]2(C=O)CC[C@]3(C)C(CCC4[C@@]5(C)CC[C@H](OC(=O)OCC)C(C)(C)C5CC[C@]43C)C12 (some centres unmarked) [Compound 20, 3-Ethoxycarbonylbetulinic aldehyde] has an IC50 [3, 8] of 25.1 ± 7.2 µM.

With C=C(C)C1CC[C@]2(C=O)CC[C@]3(C)C(CCC4[C@@]5(C)CC[C@H](OC(=O)OCCC)C(C)(C)C5CC[C@]43C)C12 (some centres unmarked) [Compound 21, 3-Propoxycarbonylbetulinic aldehyde] the IC50 [3, 8] was 80.2 ± 14.4 µM.

Molecule C=CCOC(=O)O[C@H]1CC[C@@]2(C)C(CC[C@]3(C)C2CCC2C4C(C(=C)C)CC[C@]4(C=O)CC[C@]23C)C1(C)C (some centres unmarked) [Compound 22, 3-Allyloxycarbonylbetulinic aldehyde] has an IC50 [3, 8] of 38.3 ± 4.6 µM.

Molecule C#CCOC(=O)O[C@H]1CC[C@@]2(C)C(CC[C@]3(C)C2CCC2C4C(C(=C)C)CC[C@]4(C=O)CC[C@]23C)C1(C)C (some centres unmarked) [Compound 23, 3-Propargyloxycarbonylbetulinic aldehyde] has an IC50 [3, 8] of 30 ± 6.1 µM.

C#CCCOC(=O)O[C@H]1CC[C@@]2(C)C(CC[C@]3(C)C2CCC2C4C(C(=C)C)CC[C@]4(C=O)CC[C@]23C)C1(C)C (some centres unmarked) [Compound 24, 3-(3-Butynyloxycarbonyl)betulinic aldehyde] gave an IC50 [3, 8] of 28.3 ± 7.4 µM.

In the case of C=C(C)[C@@H]1CC[C@]2(C(=O)O)CC[C@]3(C)[C@H](CC[C@@H]4[C@@]5(C)CC[C@H](O)C(C)(C)[C@@H]5CC[C@]43C)[C@@H]12 [betulinic acid], the water solubility [5] is given as less than 1 µM, the IC50 [6] is given as 12.8 to 36.4 µM and the IC50 [7] is given as 38.5 µM. For the same molecule, the “IC50 against lung A549 cell line” value (lung A549 cell line) was 8.4 µg/mL (≈ 18.4 µM).
